Measured values published in patent US20180207264A1, “PORCINE IMMUNE MODULATION MODEL” (Government of the United States as Represented by the …, priority 2017, published 2018).

Experiments:
[1] = tested on: MCF-7 breast cancer cells; assay: Cell death and cell growth in hormone dependent ER/PR positive breast cancer cell cultures; assay type: cell-based; details: 5 nM E2; for MCF7 Cell Death Amount: 25 μM β-AED, 25 μM β-AET, PEG 300 with LIPOFECTAMINE vehicle
Experimental: (§1) Hormone dependent, noninvasive, epithelial phenotype (ER/PR positive MCF-7 breast cancer cells) and hormone independent, invasive, mesenchymal phenotype (ER/PR negative MDA-MB-231 breast cancer cell) cell suspensions were acquired and prepared in complete medium (DMEM/F12, 10% FBS, 1% penicillin/streptomycin (Gibco)). Cellular concentration was adjusted to 2×10^5 cells/mL.
(§2) Androstene hormone solutions according to embodiments of the present invention were prepared from a first solution and a second solution. For the first solution, 3.0 mg of β-AED or 3-AET was added to warm PEG 300 to prepare 50 mM stock. For the second solution, 10 μL of LIPOFECTAMINE (3:1 DOSPA:DOPE) was introduced to 100 μL of PEG 300, mixed, and incubated in a water bath at 42° C. for 30 min. The first and second solutions were then mixed in a sonicator water bath at 42° C. for 1 hr. The final concentration was 50 mM β-AED (or AET, as used).
(§3) A β-estradiol solution was also prepared by adding 2.7 mg of β-estradiol to 200 μL warmed PEG 300 with LIPOFECTAMINE and then further diluted 1:1000 with PEG-300. The final concentration was 50 μM.
A diluted β-AED (or 3-AET) solution was prepared with complete medium at a final concentration of 50 μM (1:1000 dilute of 50 mM). Likewise, a diluted β-E2 solution was prepared with complete medium at a final concentration of 10 nM (1:5000 dilute of 50 μM).
Using a 24-well plate, mixtures of 0.5 mL of cells per well with 0.5 mL of medium diluted hormone vehicle. Cell cultures were maintained at 90% humidity, 7% CO2, and 37° C.

[2] = tested on: MDA-MB-231 breast cancer cell; assay: Cell death in hormone independent ER/PR negative breast cancer cell cultures; assay type: cell-based; details: 25 μM β-AED, 25 μM β-AET, 5 nM E2; PEG 300 with LIPOFECTAMINE vehicle
Experimental: as §1, §2, §3
A diluted β-AED (or 3-AET) solution was prepared with complete medium at a final concentration of 50 μM (1:1000 dilute of 50 mM). Likewise, a diluted β-E2 solution was prepared with complete medium at a final concentration of 10 nM (1:5000 dilute of 50 μM). […]

[3] = tested on: 293T cells; assay: Biological function (phenotype, mobile cells) of androstene hormone treatments in 293T cells; assay type: cell-based, human; details: androstene hormone 25 μM
Experimental: A non-toxic vehicle for administration of androstene hormones according to embodiments of the present invention was prepared from a first solution and a second solution. The first solution, comprising liposomal formulation, was placed in PEG 300 to a concentration of 5% and heated in a sonicating water bath to about 45° C. The second solution, comprising a selected hormone (one or more of 5Δ-androsten-3β, 17α-diol, 5Δ-androsten-3β, 17β-diol, or 5Δ-androsten-3β,7β,17β-triol), was placed in PEG 300 and heated in a sonicating water bath to about 45° C. The first and second solutions were then combine and stirred until dissolved.
Biological function was tested in 293T cells, which is a human embryonic cell line transformed with Large T antigen […] SV40. This hypotriploid (polyploid) cell line is particularly useful in such transformation studies and has very distinct phenotypes when grown. All androstene hormone treatment applications were at concentrations of 25 μM.

[4] = grown for 5 days, 25 μM androstene hormone, PEG 300 with 5% LIPOFECTAMINE

| SMILES | MCF7 Cell Death Amount [1] | MDA-MB-231 Cell Death Amount [2] | Cell growth / cell density of MCF-7 cells compared with vehicle (FIG. 14) [1, 4] | Particles / cell bodies produced by MCF-7 cells in response to treatment [1, 4] | Phenotype of 293T cells (cell islands, mobile cells, cell processes) ([3]; vehicle PEG 300) | Phenotype of 293T cells (cell islands, mobile cells, cell processes) ([3]; vehicle PEG 300 and LIPOFECTAMINE) |
| --- | --- | --- | --- | --- | --- | --- |
| C[C@]12CC[C@H]3[C@@H]([C@@H](O)C=C4C[C@@H](O)CC[C@@]43C)[C@@H]1CC[C@@H]2O [β-AET, 5-androstene-3β,7β, 17β-triol] | Not observed | Not observed | – | – | – | – |
| C[C@]12CC[C@H]3[C@@H](CC=C4C[C@@H](O)CC[C@@]43C)[C@@H]1CC[C@@H]2O [β-AED, androst-5-ene-3β, 17β-diol] | Not observed | Not observed | not as heath and there are areas of decreased density | small particles | cell islands are larger and there is a significant reduction in mobile cells | drastic decrease in, or morphological change, in mobile elements |
